This note sets out measurements from patent US20030176390A1, “Methods of treating insulin resistance syndrome and diabetes” (priority 2001, published 2003).

Like-named read-outs stand apart in the source and are kept apart here.

In one data set the test system is rat adipocytes. Briefly: In vitro lipolysis assay (antilipolytic activity in rat adipocytes). The data set is classed as cell-based. Particulars: norepinephrine-stimulated lipolysis, glycerol assayed, 60 min, read-out: Lipo ec50. As for the experimental part: Determination of Antilipolytic Activity in Rat Adipocytes
Isolation of Adipocytes from Epididymal Fat Pads
Adipose tissue is removed from anesthetized rats and rinsed twice in incubation medium (2.09 g sodium bicarbonate and 0.04 g EDTA, disodium salt, in 1 L Krebs buffer). Each rat (300-350 g) yields approximately 4 mL of adipose tissue. The adipose tissue (35 mL) is cut into small pieces with scissors and washed with incubation medium (50 mL). The mixture is poured into the barrel of a 50 mL syringe to which is attached a short piece of clamped tubing instead of a needle. The aqueous phase is allowed to drain. A second wash with incubation medium is passed through the syringe. The tissue is added to 50 mL of collagenase solution (collagenase (90 mg), bovine serum albumin (BSA) (500 mg), and 0.1 M calcium chloride solution (1 mL), in incubation medium (50 mL)) in a 1 L bottle. The mixture is shaken in an environmental at 37° C. for about 60 minutes under an atmosphere of 95% oxygen/5% carbon dioxide to effect digestion of the tissue. The dispersed cells are poured through 2 layers of cheese cloth into a 100 mL plastic beaker. The undigested clumps in the cloth are rinsed once with incubation medium (20 mL). The cells in the beaker are centrifuged in 2 plastic tubes for 30 seconds at room temperature at 300 rpm. The aqueous phase is aspirated from beneath the loosely packed layer of floating fat cells and discarded. The adipocytes are gently poured into a 250 mL plastic beaker containing 100 mL of rinse solution (1 g BSA per 100 mL incubation medium). After gentle stirring the centrifugation step is repeated. Another wash with rinse solution follows. The cells are pooled and their volume is estimated with a graduated cylinder. The adipocytes are diluted in twice their volume of assay buffer (incubation medium (120 mL), BSA (1.2 g), pyruvic acid (13 mg)).
The assay is performed in 20 mL plastic scintillation vials and the total assay volume is 4.2 mL. Assay buffer (2.5 mL), diluted adipocytes (1.5 mL), and a solution of the compound to be tested (12.3 μL) adenosine agonist (12.3 μl; varying concentration) is incubated in the environmental shaker for 15 minutes, then the reaction is started with norepinephrine solution (41.2 μL) (10 nM, in a carrier solution containing water (100 mL), BSA (4 mg), and 0.1 M EDTA (20 μL))and adenosine deaminase (1 μg/mL, 41.2 μl). After sixty minutes in the shaker the reaction is terminated by putting the vials on ice. […] The hard lipid layer is removed by aspiration and the aqueous layer is assayed for glycerol (400 μl of sample). The positive control is done in the absence of any adenosine agonist, substituting water in place of the solution to be tested.

Where [1] appears, read: Rattus norvegicus, Adipocyte, 1 h.

On to `OC[C@H]1C[C@@H](n2cnc3c(N[C@H]4CCN(c5cc(C(F)(F)F)ccn5)C4)ncnc32)[C@H](O)[C@@H]1O` [Example 34, (1R,2S,3R,5R)-5-hydroxymethyl-3-[6-[1-(4-trifluoromethylpyridin-2-yl)pyrrolidin-3(S)-ylamino]-purin-9-yl]cyclopentane-1,2-diol], for which the melting point was in the range of 135 to 137 °C. In addition, the EC50 in the data set on rat adipocytes (setting [1]) stood at 3.3 nM.
`OC[C@H]1O[C@@H](n2cnc3c(N[C@H]4CCN(c5cc(Cl)ncn5)C4)ncnc32)[C@H](O)[C@@H]1O` [Example 21, (2R,3R,4S,5R)-5-hydroxymethyl-2-[6-[1-(6-chloropyrimidin-4-yl)pyrrolidin-3(S)-ylamino]-purin-9-yl]-tetrahydrofuran-3,4-diol]: the EC50 in the data set with rat adipocytes (setting [1]) came to 2.43 nM.
`N#Cc1ccc(N2CC[C@H](Nc3ncnc4c3ncn4[C@@H]3C[C@H](CO)[C@@H](O)[C@H]3O)C2)cc1` [Example 40, 4-[3(S)-[9-((1R,2S,3R,5R)-1,2-dihydroxy-5-hydroxymethylcyclopent-3-yl)-9H-purin-6-ylamino]pyrrolidin-1-yl]benzonitrile] registered a melting point of 140 °C. In addition, in the data set with rat adipocytes (setting [1]), the EC50 turned out to be 10.5 nM.
Compound `COC[C@H]1C[C@@H](n2cnc3c(N[C@H]4CCN(c5ccc(Cl)nn5)C4)ncnc32)[C@H](O)[C@@H]1O` [Example 51, (1R,2S,3R,5R)-3-[6-[1-(6-chloropyridazin-3-yl)pyrrolidin-3(S)-ylamino]-purin-9-yl]-5-methoxymethylcyclopentane-1,2-diol] yielded a melting point of 122 to 124 °C. Moreover, the concentration giving a half-maximal response (EC50) in the data set with rat adipocytes (setting [1]) stood at 18.6 nM.
`OC[C@H]1C[C@@H](n2cnc3c(N[C@H]4CCN(c5ccc(C(F)(F)F)cn5)C4)ncnc32)[C@H](O)[C@@H]1O` [Example 29, (1R,2S,3R,5R)-5-hydroxymethyl-3-[6-[1-(5-trifluoromethylpyridin-2-yl)pyrrolidin-3(S)-ylamino]-purin-9-yl]cyclopentane-1,2-diol]: the melting point fell in the range of 110 to 111 °C. In addition, in the data set on rat adipocytes (setting [1]), the EC50 was determined as 3.57 nM.
With `OC[C@H]1C[C@@H](n2cnc3c(N[C@H]4CCN(c5nccc6ccccc56)C4)ncnc32)[C@H](O)[C@@H]1O` [Example 41, (1R,2S,3R,5R)-5-hydroxymethyl-3-[6-[1-(isoquinolin-1-yl)pyrrolidin-3(S)-ylamino]-purin-9-yl]cyclopentane-1,2-diol], the melting point was in the range of 119 to 122 °C. Also, the EC50 in the data set on rat adipocytes (setting [1]) stood at 182 nM.
For `OC[C@H]1C[C@@H](n2cnc3c(N[C@H]4CCN(c5ccc(Cl)cn5)C4)ncnc32)[C@H](O)[C@@H]1O` [Example 33, (1R,2S,3R,5R)-3-[6-[1-(5-chloropyridin-2-yl)pyrrolidin-3(S)-ylamino]-purin-9-yl]-5-hydroxymethylcyclopentane-1,2-diol], the melting point lay in the range of 118 to 121 °C. The EC50 in the data set on rat adipocytes (setting [1]) was 4.2 nM.
Take `OC[C@H]1C[C@@H](n2cnc3c(N[C@H]4CCN(c5ccc6cc(Br)ccc6n5)C4)ncnc32)[C@H](O)[C@@H]1O` [Example 42, (1R,2S,3R,5R)-3-[6-[1-(6-bromoquinolin-2-yl)pyrrolidin-3(S)-ylamino]-purin-9-yl]-5-hydroxymethylcyclopentane-1,2-diol]: the EC50 with rat adipocytes (setting [1]) was determined as 30 nM.
In turn, `COC[C@H]1C[C@@H](n2cnc3c(N[C@H]4CCN(c5ccc(Cl)cc5)C4)ncnc32)[C@H](O)[C@@H]1O` [Example 55, (1R,2S,3R,5R)-3-[6-[1-(4-chlorophenyl)-pyrrolidin-3(S)-ylamino]-purin-9-yl]-5-methoxymethylcyclopentane-1,2-diol] registered a melting point of 122 to 125 °C. The EC50 in the data set on rat adipocytes (setting [1]) worked out at 3.3 nM.
As to `OC[C@H]1C[C@@H](n2cnc3c(N[C@H]4CCN(c5ccc(Cl)nn5)C4)ncnc32)[C@H](O)[C@@H]1O` [Example 47, (1R,2S,3R,5R)-3-[6-[1-(6-chloropyridazin-3-yl)pyrrolidin-3(S)-ylamino]-purin-9-yl]-5-hydroxymethylcyclopentane-1,2-diol], in the data set on rat adipocytes (setting [1]), the EC50 is 129 nM.
Still for that read-out and setting: the result for `O=[N+]([O-])c1ccc(N2CC[C@H](Nc3ncnc4c3ncn4[C@@H]3C[C@H](CO)[C@@H](O)[C@H]3O)C2)cc1` [Example 37, (1R,2S,3R,5R)-5-hydroxymethyl-3-[6-[1-(4-nitrophenyl)-pyrrolidin-3(S)-ylamino]-purin-9-yl]cyclopentane-1,2-diol] reads 2.8 nM.
In the case of `O=C1C[C@H](Nc2ncnc3c2ncn3[C@@H]2C[C@H](CO)[C@@H](O)[C@H]2O)CN1Cc1ccccc1` [Example 6, 4(S)-1-benzyl-4-[9-((1R,2S,3R,5R)-1,2-dihydroxy-5-hydroxymethylcyclopent-3-yl)-9H-purin-6-ylamino]pyrrolidin-2-one], the EC50 with rat adipocytes came out at 267 nM.
Same read-out and setting: the same measure for `OC[C@H]1C[C@@H](n2cnc3c(N[C@H]4CCN(c5cc(C(F)(F)F)c(C(F)(F)F)cn5)C4)ncnc32)[C@H](O)[C@@H]1O` [Example 38, (1R,2S,3R,5R)-3-[6-[1-(4,5-bistrifluorpyridin-2-yl)pyrrolidin-3(S)-ylamino]-purin-9-yl]-5-hydroxymethylcyclopentane-1,2-diol]: 114 nM.
Turning to `OC[C@H]1O[C@@H](n2cnc3c(N[C@H]4CCN(c5ccc(-c6cccs6)cn5)C4)ncnc32)[C@H](O)[C@@H]1O` [Example 18, (2R,3R,4S,5R)-5-hydroxymethyl-2-[6-[1-(5-thiophen-2-ylpyridin-2-yl)-pyrrolidin-3(S)-ylamino]-purin-9-yl]tetrahydrofuran-3,4-diol], the EC50 with rat adipocytes (setting [1]) is 2.24 nM.
In the case of `COC[C@H]1C[C@@H](n2cnc3c(N[C@H]4CCN(c5cc(Cl)ncn5)C4)ncnc32)[C@H](O)[C@@H]1O` [Example 46, (1R,2S,3R,5R)-3-[6-[1-(6-chloropyrimidin-4-yl)pyrrolidin-3(S)-ylamino]-purin-9-yl]-5-methoxymethylcyclopentane-1,2-diol], the EC50 in the data set on rat adipocytes (setting [1]) amounted to 92.5 nM.
Turning to `COC[C@H]1C[C@@H](n2cnc3c(N[C@H]4CCN(c5ccc(Cl)cn5)C4)ncnc32)[C@H](O)[C@@H]1O` [Example 53, (1R,2S,3R,5R)-3-[6-[1-(5-chlorpyridin-2-yl)pyrrolidin-3(S)-ylamino]-purin-9-yl]-5-methoxymethylcyclopentane-1,2-diol], in the data set with rat adipocytes, the EC50 is 18.6 nM.
`CC(C)OC[C@H]1C[C@@H](n2cnc3c(N[C@H]4CCN(c5cc(C(F)(F)F)ccn5)C4)ncnc32)[C@H](O)[C@@H]1O` [Example 50, (1R,2S,3R,5R)-5-isopropoxymethyl-3-[6-[1-(4-trifluoromethylpyridin2-yl)pyrrolidin-3(S)-ylamino]-purin-9-yl]cyclopentane-1,2-diol]: the EC50 in the data set on rat adipocytes (setting [1]) amounted to 365 nM.
On the same count and under the same terms, the same measure for `O=[N+]([O-])c1ccc(N2CCC(Nc3ncnc4c3ncn4[C@@H]3C[C@H](CO)[C@@H](O)[C@H]3O)C2)cc1` (stereo partly drawn) [Example 7, (1R,2S,3R,5R)-5-hydroxymethyl-3-[6-[1-(4-nitrophenyl)pyrrolidin-3-ylamino]-purin-9-yl]cyclopentane-1,2-diol]: 2.82 nM.
In the case of `CC(C)NC(=O)[C@H]1C[C@@H](n2cnc3c(N[C@H]4CCN(c5cc(C(F)(F)F)ccn5)C4)ncnc32)[C@H](O)[C@@H]1O` [Example 2, (1S,2R,3S,4R)-2,3-dihydroxy-4-[6-[1-(4-trifluormethylpyridin-2-yl)pyrrolidin-3(S)-ylamino]purin-9-yl]cyclopentanecarboxylic acid isopropylamide], the half-maximal effective concentration (EC50) in the data set with rat adipocytes is 10.9 nM.
